Experimental data as given in patent publication US20220105119A1, “DELIVERY OF AEROSOLIZED MICROMOLAR COMPOSITION CONCENTRATIONS” (Amcyte Pharma Inc., priority 2020, published 2022).
Values joined by “and” are separate entries in the source; they are usually repeats but may differ in a detail not shown here. Equal values may be shown once. Read-outs that look alike come from different tables or passages of the source.

Tests used:
[1] = system: SARS CoV 2; type: cell-based
[2] = Related substances by HPLC after 1 week at 50° C.; type: physicochemical; details: formulations after 1 week at 50° C., drug substance lot as used
Description: HPLC method used renders chromatograms like the one depicted in FIG. 1 for drug substance and drug product. […] The rest of the peaks may be attributed to related substances. Related substances are substances structurally similar to the drug substance. Some of them come from synthesis impurities and are not increased during shelf life because they cannot form from degradation of the drug substance. Others are degradation products. […] (an extremely high stress condition for an MDI).

[3] = system: SARS CoV 2; details: cited from earlier work
[4] = calculated
[5] = system: flaviviruses (yellow fever virus, West Nile virus, dengue virus, Japanese encephalitis virus, tick-borne encephalitis virus); details: other viruses; cited from earlier work
[6] = cited from earlier work; for Maximum Plasma Concentration: single oral dose; for Time elapsed to reach maximum concentration: after ingestion
[7] = in vivo; cited from earlier work
[8] = Ali 2011; cited from earlier work

Q: With Ivermectin as the substance, how does the “IC50 as mass concentration” value [1] read?
A: The value was 1.7 µg/mL.

Q: And the “Related substance RRT 1.42” value ([2]; alkaline degradation product)?
A: Its value is 2.9 % total HPLC area.

Q: And the “Related substance RRT 0.39” value [2]?
A: Its value is 0.3 % total HPLC area.

Q: And the “Related substance RRT 0.40” value [2]?
A: The value was 0.3 % total HPLC area.

Q: And the “Related substance RRT 0.46” value [2]?
A: Its value is 0.5 % total HPLC area.

Q: And the “Related substance RRT 0.78” value [2]?
A: The value was 0.1 % total HPLC area.

Q: And the “Related substance RRT 1.52” value [2]?
A: The value was 0.7 % total HPLC area.

Q: What about the IC50 ([3]; Vero cells culture, read-out: IC50, SARS CoV 2 replication) of the same substance?
A: The IC50 was 2000 nM and ~2000 nM.

Q: And the “reduction in viral RNA in reference to placebo” value ([3]; at 5 μM, 48 hours after one single application)?
A: Its value is 5,000 fold.

Q: And the “viral RNA reduction” value ([3]; at a concentration of (equivalent to ca. 4.4 μg/mL))?
A: The value was “ca. 5,000 times”.

Q: And the “concentration in nasal airway surface liquid” value ([4]; 100 μg per nostril in a 50-μL shot, liquid volume 50-375 μL)?
A: The value was 533 µg/mL.

Q: What about the “immediate concentration in saliva” value ([4]; one 50-μL shot containing 100 μg, 0.8 mL saliva) of the same substance?
A: Its value is 125 µg/mL.

Q: And the “concentration range of antiviral activity” value [5]?
A: The value was 0.003 to 10 µM.

Q: And the “Maximum Plasma Concentration” value ([6]; 150 μg/kg (fasted), Baraka 1996)?
A: The value was “aprox. 55 ng/mL”.

Q: And the “Maximum Plasma Concentration” value ([6]; 200 μg/kg (fed), Schulz 2018)?
A: The value was 40.1 ng/mL.

Q: And the “Maximum Plasma Concentration” value ([6]; 600 μg/kg (children, fed), Schulz 2019)?
A: The value was 66.1 ng/mL.

Q: What about the “Maximum Plasma Concentration” value ([6]; 30 mg (fed), Guzzo 2002) of the same substance?
A: The value was 260.5 ng/mL.

Q: What about the “Maximum Plasma Concentration” value ([6]; 60 mg (fasted), Guzzo 2002) of the same substance?
A: Its value is 186.2 ng/mL and 165.2 to 186.2 ng/mL.

Q: What about the “Maximum Plasma Concentration” value ([6]; 90 mg (fasted), Guzzo 2002) of the same substance?
A: The value was 158.1 ng/mL.

Q: What about the “Maximum Plasma Concentration” value ([6]; 120 mg (fasted), Guzzo 2002) of the same substance?
A: Its value is 247.8 ng/mL.

Q: What about the “Time elapsed to reach maximum concentration” value ([6]; adults) of the same substance?
A: The value was 4 to 5 h.

Q: And the “Time elapsed to reach maximum concentration” value ([6]; children)?
A: Its value is 6 to 7 h.

Q: What about the Oral bioavailability [7] of the same substance?
A: The Oral bioavailability was 40-50%.

Q: And the forced degradation studies [8]?
A: Its forced degradation studies is “susceptible to oxidation and hydrolysis”.
